Experimental findings from US20080176889A1, “9-anilinoacridine alkylating agents” (priority 2004, published 2008) are described below.

In experiment [1] the test system is human lymphoblastic leukemic cells (CCRF-CEM). Briefly: XTT-tetrazolium cytotoxicity assay, CCRF-CEM. In kind it is cell-based. The protocol: (§1) The effects of the compounds on cell growth were determined in all human tumor cells (i.e. T-cell acute lymphocytic leukemia CCRF-CEM), in a 72 h incubation, by XTT-tetrazolium assay, as described by Scudiero et al., Cancer Res. 1988, 48, 4827-4833. After the addition of phenazine methosulfate-XTT solution at 37° C. for 6 h, absorbance at 450 and 630 nm was detected on a microplate reader (EL 340; Bio-Tek Instruments Inc., Winooski, Vt.). Six to seven concentrations of each compound were used. The IC50 and dose-effect relationships of the compounds for antitumor activity were calculated by a median-effect plot (see, e.g., Chou et al. Adv. Enzyme Regul. 1984, 22, 27-55) using a computer program on an IBM-PC workstation (see, e.g., Chou et al. Dose-Effect Analysis with Microcomputers: Quantitation of ED50, LD50, Synergism, Antagonism, Low-Dose Risk, Receptor-Ligands Binding and Enzyme Kinetics; Biosoft: Cambridge, U.K., 1987).

For the next experiment, the system named is HCT-116. Briefly: SRB cytotoxicity assay, solid tumor cells HCT-116. It counts as cell-based. Conditions: Homo sapiens, HCT-116; SRB, 72 hours incubation; read-out: IC50 HCT-116.
For a further experiment, the system named is CCRF-CEM/Taxol. Briefly: XTT cytotoxicity assay, taxol-resistant subline. In kind it is cell-based, human. Conditions: for IC50: Homo sapiens, CCRF-CEM, XTT, 72 hours incubation, read-out: IC50 CCRF-CEM/Taxol; for folds of resistance CCRF-CEM/Taxol vs CCRF-CEM parent cells: number in bracket, ratio of IC50's. The protocol:
as §1
(§2) Data summarizing the growth inhibition of human lymphoblastic leukemic cells (CCRF-CEM) and its drug-resistant sublines (resistant to vinblastine and taxol, CCRF-CEM/VBL and CCRF-CEM/taxol, respectively) by compound 37 is shown in Table 4.

The subject of another experiment is A549. Briefly: SRB cytotoxicity assay, solid tumor cells A549. It counts as cell-based, human. Conditions: for IC50: Homo sapiens, A549, SRB.
For the next experiment, the system named is CCRF-CEM/VBL. Briefly: XTT cytotoxicity assay, vinblastine-resistant subline. In kind it is cell-based, human. The note with it: for IC50: Homo sapiens, CCRF-CEM, XTT, 72 hours incubation, read-out: IC50 CCRF-CEM/VBL; for folds of resistance CCRF-CEM/VBL vs CCRF-CEM parent cells: number in bracket, ratio of IC50's. Here is the method: as §1, §2
The subject of another experiment is Topo II. Briefly: Topo II-mediated relaxation of pRYG-DNA. In kind it is biochemical.
Setting [2] is: Table 1, Type 1 compounds, 72 h incubation, XTT.
Where [3] appears, read: Table 2, Type 2 compounds, 72 h incubation, XTT.
[4] abbreviates: 72 hours incubation, read-out: IC50 A549.
[5] abbreviates: incubation for 3 hours, washed, then incubated for a total of 72 hours (footnote b), read-out: IC50 A549 after washing.
Setting [6] is: Homo sapiens, Table 4, XTT, 72 hours incubation, read-out: IC50 CCRF-CEM.

Like-named read-outs stand apart in the source and are kept apart here.

On to `Cc1cccc2c(Nc3cccc(OCCN(CCCl)CCCl)c3)c3cccc(C(=O)NCCN(C)C)c3nc12` [Compound 42, 9-(3-{2-[Bis(2-chloroethyl)amino]ethoxy}phenylamino)-5-methylacridin-4-carboxylic acid (2-dimethylaminoethyl)amide], for which the IC50 in experiment [1] (setting [2]) worked out at 3 nM.

`Cc1cccc2c(Nc3cccc(OCCCCN(CCCl)CCCl)c3)c3cccc(C(=O)NCCN(C)C)c3nc12` [Compound 43, 9-(3-{4-[Bis(2-chloroethyl)amino]butoxy}phenylamino)-5-methylacridin-4-carboxylic acid (2-dimethylaminoethyl)amide]: the IC50 in experiment [1] (setting [2]) worked out at 23.5 nM.

As to `ClCCN(CCCl)CCOc1cccc(Nc2c3ccccc3nc3ccccc23)c1` [Compound 38, Acridin-9-yl-(3-{2-[bis(2-chloroethyl)amino]ethoxy}phenyl)amine], in experiment [1] (Homo sapiens, 72 h), the IC50 is 95 nM. As to `Cc1cccc2c(Nc3ccc(OCCCCN(CCCl)CCCl)cc3)c3cccc(C(=O)NCCN(C)C)c3nc12` [Compound 45, 9-(4-{4-[Bis(2-chloroethyl)amino]butoxy}phenylamino)-5-methylacridin-4-carboxylic acid (2-dimethylaminoethyl)amide], the IC50 in experiment [1] (setting [2]) stood at 23 nM.

Regarding `Cc1cccc2c(Nc3ccc(OCCN(CCCl)CCCl)cc3)c3cccc(C(=O)NCCN(C)C)c3nc12` [Compound 44, 9-(4-{2-[Bis(2-chloroethyl)amino]ethoxy}phenylamino)-5-methylacridin-4-carboxylic acid (2-dimethylaminoethyl)amide], the IC50 in experiment [1] (setting [2]) is 773 nM. Take `ClCCN(CCCl)CCOc1ccc(Nc2c3ccccc3nc3ccccc23)cc1` [Compound 40, Acridin-9-yl-(4-{2-[bis(2-chloroethyl)amino]ethoxy}phenyl)amine]: in experiment [1] (Homo sapiens, 72 h), the IC50 was 20 nM. With `ClCCN(CCCl)CCCCOc1cccc(Nc2c3ccccc3nc3c(OCCN(CCCl)CCCl)cccc23)c1` [Compound 58], the IC50 in experiment [1] (Table 3, Type 3 compounds, 72 h incubation, XTT, read-out: IC50) is 25 nM. As for `OCc1cc(O)cc(Nc2c3ccccc3nc3c(OCCN(CCCl)CCCl)cccc23)c1` [Compound 53, 3-(4-{2-[Bis-(2-chloroethyl)amino]ethoxy}acridin-9-ylamino)-5-hydroxymethylphenol], the IC50 in experiment [1] (setting [3]) stood at 6.1 nM. As to `ClCCN(CCCl)Cc1cccc(Nc2c3ccccc3nc3ccccc23)c1` [Compound 46, Acridin-9-yl-(3-{[bis-(2-chloroethyl)amino]methyl}phenyl)amine], in experiment [1] (setting [2]), the IC50 is 7.4 nM. For `Nc1cc(CO)cc(Nc2c3ccccc3nc3c(OCCN(CCCl)CCCl)cccc23)c1` [Compound 50, [3-Amino-5-(4-{2-[bis(2-chloroethyl)amino]ethoxy}acridin-9-ylamino)phenyl]methanol], the IC50 in experiment [1] (setting [3]) came out at 7.2 nM.

For `ClCCN(CCCl)CCOc1cccc(Nc2c3ccccc3nc3c(OCCN(CCCl)CCCl)cccc23)c1` [Compound 54, (4-{2-[Bis-(2-chloroethyl)amino]ethoxy}acridin-9-yl)-(3-{2-[bis(2-chloroethyl)-amino]ethoxy}phenyl)amine], in experiment [1] (Homo sapiens, 72 h), the IC50 was 18.6 nM. On to `CC(=O)O[C@H]1C(=O)[C@@]2(C)[C@H]([C@H](OC(=O)c3ccccc3)[C@]3(O)C[C@H](OC(=O)[C@H](O)[C@@H](NC(=O)c4ccccc4)c4ccccc4)C(C)=C1C3(C)C)[C@]1(OC(C)=O)CO[C@@H]1C[C@@H]2O` [Taxol], for which the IC50 came out at 1.3 nM in the experiment with HCT-116; 143 ± 7 nM in the experiment with CCRF-CEM/Taxol; 1.9 nM in the experiment on A549 (setting [4]); 390 nM with A549 (setting [5]); 1620 nM with CCRF-CEM/VBL; 1.5 ± 0.5 nM in experiment [1] (setting [6]). In the experiment with CCRF-CEM/Taxol, the “folds of resistance CCRF-CEM/Taxol vs CCRF-CEM parent cells” value (“folds of resistance CCRF-CEM/Taxol” for short) stood at 95.3 ×. In the experiment with CCRF-CEM/VBL, the “folds of resistance CCRF-CEM/VBL vs CCRF-CEM parent cells” value (“folds of resistance CCRF-CEM/VBL” for short) stood at 1080 ×. For the compound `Nc1cc(CO)cc(Nc2c3ccccc3nc3ccccc23)c1` [AHMA, 3-(9-acridinylamino)-5-hydroxymethylaniline], the IC50 in the experiment with CCRF-CEM/Taxol worked out at 600 ± 74 nM; in the experiment on A549 (setting [4]) it was 47 nM; with A549 (setting [5]), 550 nM; in the experiment on CCRF-CEM/VBL, 1600 nM; in experiment [1] (Homo sapiens, Table 1, Type 1 compounds, 72 h incubation, XTT, read-out: IC50), 753 nM; in experiment [1] (setting [6]), 753 ± 378 nM. In the experiment with CCRF-CEM/Taxol, the “folds of resistance CCRF-CEM/Taxol” value came out at 0.8 ×. Besides, the “reduction of potency when drug washed away” value in the experiment on A549 (similar conditions, drug washed away) is “about 12 fold”. In addition, the “folds of resistance CCRF-CEM/VBL” value in the experiment on CCRF-CEM/VBL came to 2.1 ×. With `ClCCN(CCCl)CCOc1ccc(Nc2c3ccccc3nc3c(OCCN(CCCl)CCCl)cccc23)cc1` [Compound 56, (4-[2-[Bis(2-chloroethyl)amino]ethoxy]acridin-9-yl)-(4-{2-[bis(2-chloroethyl)amino]-ethoxy}phenyl)amine], in experiment [1] (Homo sapiens, 72 h), the IC50 is 17.3 nM. As for AHMA-tert-butylcarbamate, in the experiment on Topo II, the “Topo II-mediated relaxation of pRYG-DNA” value is listed as “inhibited DNA relaxation”. `ClCCN(CCCl)Cc1ccc(Nc2c3ccccc3nc3ccccc23)cc1` [Compound 47, Acridin-9-yl-(4-{[bis(2-chloroethyl)amino]methyl}phenyl)amine]: the IC50 in experiment [1] (setting [2]) is 30 nM. Turning to `CCOC(=O)Nc1cc(CO)cc(Nc2c3ccccc3nc3c(OCCN(CCCl)CCCl)cccc23)c1` [Compound 51], in experiment [1] (setting [3]), the IC50 was determined as 26 nM. On to `CC[C@]1(O)C[C@@H]2CN(CCc3c([nH]c4ccccc34)[C@@](C(=O)OC)(c3cc4c(cc3OC)N(C)[C@H]3[C@@](O)(C(=O)OC)[C@H](OC(C)=O)[C@]5(CC)C=CCN6CC[C@]43[C@@H]65)C2)C1` [Vinblastine], for which the IC50 was 1.4 nM with HCT-116; 29 nM in the experiment with CCRF-CEM/Taxol; 8.1 nM with A549 (setting [4]); 95 nM in the experiment with A549 (setting [5]); 540 nM with CCRF-CEM/VBL; 1.2 nM in experiment [1] (setting [6]). The “folds of resistance CCRF-CEM/Taxol” value in the experiment on CCRF-CEM/Taxol turned out to be 24.2 ×. Moreover, in the experiment with CCRF-CEM/VBL, the “folds of resistance CCRF-CEM/VBL” value was 450 ×. `ClCCN(CCCl)CCCCOc1ccc(Nc2c3ccccc3nc3ccccc23)cc1` [Compound 41, Acridin-9-yl-(4-{4-[bis(2-chloroethyl)amino]buoxy}phenyl)amine]: in experiment [1] (Homo sapiens, 72 h), the IC50 came to 61 nM. `Cc1cccc2c(Nc3cccc(CN(CCCl)CCCl)c3)c3cccc(C(=O)NCCN(C)C)c3nc12` [Compound 48, 9-(3-{[Bis(2-chloroethyl)amino]methyl}phenylamino)-5-methylacridine-4-carboxylic acid (2-dimethylaminoethyl)amide]: the IC50 in experiment [1] (setting [2]) is 1.7 nM. Consider `COc1cc([C@@H]2c3cc4c(cc3[C@@H](O[C@@H]3O[C@@H]5CO[C@@H](C)O[C@H]5[C@H](O)[C@H]3O)[C@H]3COC(=O)[C@H]23)OCO4)cc(OC)c1O` [VP-16], for which the “Topo II-mediated relaxation of pRYG-DNA” value in the experiment on Topo II is “inhibited DNA relaxation”. In the case of `Nc1cc(CO)cc(Nc2c3ccccc3nc3c(OCCCCN(CCCl)CCCl)cccc23)c1` [Compound 52, [3-Amino-5-(4-{4-[bis-(2-chloroethyl)amino]butoxy}acridin-9-ylamino)phenyl]-methanol], in experiment [1] (setting [3]), the IC50 amounted to 4.6 nM.

For `ClCCN(CCCl)CCCCOc1cccc(Nc2c3ccccc3nc3ccccc23)c1` [Compound 39, Acridin-9-yl-(3-{4-[bis(2-chloroethyl)amino]butoxy}phenyl)amine], the IC50 in experiment [1] (Homo sapiens, 72 h) was 456 nM. `Cc1cccc2c(Nc3ccc(CN(CCCl)CCCl)cc3)c3cccc(C(=O)NCCN(C)C)c3nc12` [Compound 49, 9-(4-{[Bis(2-chloroethyl)amino]methyl}phenylamino)-5-methylacridin-4-carboxylic acid (2-dimethylaminoethyl)amide]: the IC50 in experiment [1] (setting [2]) was 8.1 nM.

Regarding `ClCCN(CCCl)CCCCOc1cccc(Nc2c3ccccc3nc3c(OCCN(CCCl)CCCl)cccc23)c1` [Compound 55], in experiment [1] (Homo sapiens, 72 h), the IC50 was 6 nM.
